{
  "source": "patent US7109337B2",
  "about": "“Pyrimidine derivatives for the treatment of abnormal cell growth” (Pfizer Inc, priority 2002, dated 2006)",
  "origin": "cited, not measured here",
  "key": {"[1]": {"test_system": "transplanted human mammary carcinoma that expresses epidermal growth factor receptor tyrosine kinase (EGFR)", "details": "athymic nude mice"}, "[2]": {"test_system": "another carcinoma that does not express the EGF receptor"}},
  "data": [
    {"smiles": "O=CN/C=C/c1cc(O)ccc1O", "note": "[erbstatin]", "values": [
      {"measurement": "growth of transplanted human mammary carcinoma", "setting": "[1]", "result": "selectively attenuates the growth"},
      {"measurement": "growth of another carcinoma", "setting": "[2]", "result": "without effect on the growth"}
    ]}
  ]
}
